The values that follow come from patent US20230047816A1 (priority 2018, published 2023).

Structures are written as SMILES.

The test system of assay [1] is Cln7Aex2 mice. Briefly: Cln7Aex2 mice in vivo (cortex pathology, hindlimb paralysis).
Assay [2] concerns iPSC-derived neural precursor cells (NPC) from CLN7 patients. The experiment in a line: Patient-derived neural precursor cells, ATP5A immunocytochemistry. The assay is classed as cell-based, human. As to the method:
iPSC were generated from two CLN7 patients (Pa380 and Pa474). then characterized and differentiated to NPC as previously described39. […]
NPCs were fixed with 100% iced-cold methanol for 5 min and incubated in blocking solution (1% (v/v) normal goat serum, 0.1% (w/v) bovine serum albumin (BSA), 0.1% (v/v) Triton X-100 in DPBS). […] Slides were mounted with VECTASHIELD Mounting Medium with DAPI, incubated for 24 h at 4° C. and imaged with a Zeiss Axio Imager M2 fluorescence microscope or under an inverted microscope (Nikon; Eclipse Ti-E) equipped with a pre-centred fibre illuminator (Nikon; Intensilight C-HGFI), B/W CCD digital camera (Hamamatsu; ORCA-E.R.). Fluorescence quantification was performed. after appropriate thresholding using the ImageJ software (NIH). The pixel intensity profile of ATP5A immunodecoration was analyzed across the maximal axis of the cell that departs from the nucleus, using the plot profile plugin of ImageJ software. […]

Assay [3] concerns primary neurons. The experiment in a line: NADPH/NADP ratio under excitotoxic conditions induced by glutamate. The assay is classed as cell-based. The settings on record: 0.01 μM, FIG. 4A.
Assay [4] concerns Caenorhabditis elegans N2. Briefly: C. elegans life span in 96 well microtiter plates. The assay is classed as in vivo. The settings on record: strain N2. The source says:
The test of AZ67 compound had been made according to protocol disclosed in Solis, G. M., Petrascheck, M. Measuring Caenorhabditis elegans

The test system of assay [5] is mouse cortical primary neurons. Briefly: β-amyloid-induced neuronal apoptosis (annexin V/7-AAD flow cytometry). The assay is classed as cell-based. To be noted: β-amyloid 24 hours. As to the method:
(§1) Primary cultures of C57BL/6 mice cortical neurons were prepared from fetal animals of 14.5 days of gestation, seeded at 1.8·10^5 cells/cm^2 in plastic plates coated with poly-D-lysine (10 mg/ml) and incubated in Neurobasal (Life Technologies) supplemented with 2 mM glutamine, 5 mM of glucose, 0.25 mM pyruvate and 2% B27 supplement (Life Technologies). Cells were incubated at 37° C. in a humidified 5% CO2-containing atmosphere. At 72 hours after plating, medium was replaced using Neurobasal (Life Technologies) supplemented with 2 mM glutamine, 5 mM glucose, 0.25 mM pyruvate and 2% B27 supplement (Life Technologies) minus antioxidants (MAO; i.e., lacking vitamin E, vitamin E acetate, superoxide dismutase, catalase and glutathione). […] APC/C-conjugated annexin-V and 7-amino-actinomycin D (7-AAD) (Becton Dickinson Biosciences, BDB, San Jose, Calif., USA) were used to determine quantitatively the percentage of apoptotic neurons by flow cytometry. Cells were stained with annexin V-APC and 7-AAD, following the manufacturer's instructions, and were analysed on a FACScalibur™ flow cytometer (15 mW argon ion laser tuned at 488 nm; CellQuest software, Becton Dickinson Biosciences) using the CellQuest software (BDB). Both GFP+ and GFP− cells were analyzed separately, and the annexin V-APC-stained cells that were 7-AAD-negative were considered to be apoptotic.

Assay [6] relates to influenza A H1N1 in MDCK. The assay is classed as cell-based. The settings on record: 0, 0.1 μM, 1 μM, 10 μM and 100 μM.
The test system of assay [7] is mouse cortical primary neurons. The experiment in a line: MG132-induced neuronal apoptosis (annexin V/7-AAD flow cytometry). To be noted: MG132 24 hours; inhibitor 0.01 μM. The assay is classed as cell-based. Here is the method: as §1
On the technique in general: A flow cytometer gives signals particle by particle.

[8] abbreviates: Cln7Aex2 mice in vivo, FIGS. 15A-15C.

In the case of `Cc1noc(C)c1Cn1cc(C#N)c2cc(Oc3ccc(NC(=O)[C@@H]4CCCN4)cc3)ccc21` [AZ67, (2S)-N-[4-({3-cyano-1-[(3,5-dimethyl-1,2-oxazol-4-yl)methyl]-1H-indol-5-yl}oxy)phenyl]pyrrolidine-2-carboxamide], in assay [1] (setting [8]), the “accumulation of SCMAS in the cortex” value is on record as “prevented the accumulation”, the “accumulation of lipofuscin in the cortex” value was “prevented the accumulation” and the “accumulation of reactive astroglia in the cortex” value is “prevented the accumulation”. Further, the hindlimb paralysis entry in assay [1] (Cln7Aex2 mice, FIG. 15D) is recorded as “prevented”. In assay [2], the “loss of perinuclear mitochondria” value is reported as “rectified the loss of perinuclear mitochondria”. For the same compound, the NADPH/NADP ratio entry in assay [3] is recorded as “restore NADPH/NADP ratio”. Besides, in assay [4] (Conc 10 uM, set AI), the “% LS change” value is reported as −8% and the “Lifespan” value was 18.81 days. Also, in assay [4] (Conc 100 uM, set AI), the “% LS change” value was 24% and the “Lifespan” value is 25.45 days. For the same compound, in assay [4] (conc 10, set Aib), the “% LS change” value is reported as 15% and the “Lifespan” value is 25.98 days. Also, in assay [4] (conc 100, set Aib), the “% LS change” value was 22% and the “Lifespan” value came out at 27.47 days. The “prevention of apoptotic neuronal death caused by β-amyloid” value in assay [5] is listed as ~60%. In addition, in assay [6], the “antiviral activity (anti-HA immunostain)” value was “demonstrate antiviral activity”. Besides, in assay [7], the “prevention of neuronal apoptosis caused by MG132” value is recorded as ~45%.
